Numbers after ± are expanded uncertainties.
Test: mn = molality of the nth substance listed, in mol/kg
Conditions: 350 kPa, Liquid, Extra sensitive DSC

C1COCCOCCOCCOCCOCCO1 [1,4,7,10,13,16-hexaoxacyclooctadecane] + O
apparent molar heat capacity (278.15 K, m1 = 0.01001): 748 ± 17 J/K/mol | apparent molar heat capacity (278.15 K, m1 = 0.02001): 740.4 ± 8.5 J/K/mol | apparent molar heat capacity (278.15 K, m1 = 0.03002): 741.5 ± 5.7 J/K/mol | apparent molar heat capacity (278.15 K, m1 = 0.0401): 742.3 ± 4.4 J/K/mol | apparent molar heat capacity (278.15 K, m1 = 0.04995): 746.2 ± 3.5 J/K/mol | apparent molar heat capacity (278.15 K, m1 = 0.06015): 746.9 ± 2.9 J/K/mol | apparent molar heat capacity (278.15 K, m1 = 0.08002): 744.3 ± 2.2 J/K/mol | apparent molar heat capacity (278.15 K, m1 = 0.1224): 740.8 ± 1.5 J/K/mol | apparent molar heat capacity (278.15 K, m1 = 0.1472): 738.5 ± 1.2 J/K/mol | apparent molar heat capacity (278.15 K, m1 = 0.1935): 734.51 ± 0.98 J/K/mol | apparent molar heat capacity (278.15 K, m1 = 0.2925): 725.83 ± 0.69 J/K/mol | apparent molar heat capacity (283.15 K, m1 = 0.01001): 768 ± 12 J/K/mol | apparent molar heat capacity (283.15 K, m1 = 0.02001): 764.2 ± 6.1 J/K/mol | apparent molar heat capacity (283.15 K, m1 = 0.03002): 764.8 ± 4.1 J/K/mol | apparent molar heat capacity (283.15 K, m1 = 0.0401): 765.6 ± 3.1 J/K/mol | apparent molar heat capacity (283.15 K, m1 = 0.04995): 769.1 ± 2.5 J/K/mol | apparent molar heat capacity (283.15 K, m1 = 0.06015): 769.3 ± 2.1 J/K/mol | apparent molar heat capacity (283.15 K, m1 = 0.08002): 767.2 ± 1.6 J/K/mol | apparent molar heat capacity (283.15 K, m1 = 0.1224): 764.3 ± 1.1 J/K/mol | apparent molar heat capacity (283.15 K, m1 = 0.1472): 762.46 ± 0.93 J/K/mol | apparent molar heat capacity (283.15 K, m1 = 0.1935): 759.11 ± 0.76 J/K/mol | apparent molar heat capacity (283.15 K, m1 = 0.2925): 751.64 ± 0.55 J/K/mol | apparent molar heat capacity (288.15 K, m1 = 0.01001): 788 ± 11 J/K/mol | apparent molar heat capacity (288.15 K, m1 = 0.02001): 782.4 ± 5.3 J/K/mol | apparent molar heat capacity (288.15 K, m1 = 0.03002): 783.2 ± 3.5 J/K/mol | apparent molar heat capacity (288.15 K, m1 = 0.0401): 785.4 ± 2.7 J/K/mol | apparent molar heat capacity (288.15 K, m1 = 0.04995): 788.8 ± 2.2 J/K/mol | apparent molar heat capacity (288.15 K, m1 = 0.06015): 788.7 ± 1.8 J/K/mol | apparent molar heat capacity (288.15 K, m1 = 0.08002): 786.6 ± 1.4 J/K/mol | apparent molar heat capacity (288.15 K, m1 = 0.1224): 784.29 ± 0.93 J/K/mol | apparent molar heat capacity (288.15 K, m1 = 0.1472): 782.67 ± 0.83 J/K/mol | apparent molar heat capacity (288.15 K, m1 = 0.1935): 779.7 ± 0.67 J/K/mol | apparent molar heat capacity (288.15 K, m1 = 0.2925): 773.51 ± 0.48 J/K/mol | apparent molar heat capacity (293.15 K, m1 = 0.01001): 805.9 ± 9.8 J/K/mol | apparent molar heat capacity (293.15 K, m1 = 0.02001): 800.2 ± 4.8 J/K/mol | apparent molar heat capacity (293.15 K, m1 = 0.03002): 800.8 ± 3.2 J/K/mol | apparent molar heat capacity (293.15 K, m1 = 0.0401): 803.3 ± 2.5 J/K/mol | apparent molar heat capacity (293.15 K, m1 = 0.04995): 806.1 ± 2 J/K/mol | apparent molar heat capacity (293.15 K, m1 = 0.06015): 806 ± 1.7 J/K/mol | apparent molar heat capacity (293.15 K, m1 = 0.08002): 804.3 ± 1.3 J/K/mol | apparent molar heat capacity (293.15 K, m1 = 0.1224): 802.22 ± 0.86 J/K/mol | apparent molar heat capacity (293.15 K, m1 = 0.1472): 800.93 ± 0.76 J/K/mol | apparent molar heat capacity (293.15 K, m1 = 0.1935): 798.36 ± 0.61 J/K/mol | apparent molar heat capacity (293.15 K, m1 = 0.2925): 793.29 ± 0.44 J/K/mol | apparent molar heat capacity (298.15 K, m1 = 0.01001): 820.2 ± 9.5 J/K/mol | apparent molar heat capacity (298.15 K, m1 = 0.02001): 817 ± 4.6 J/K/mol | apparent molar heat capacity (298.15 K, m1 = 0.03002): 817.3 ± 3.1 J/K/mol | apparent molar heat capacity (298.15 K, m1 = 0.0401): 820 ± 2.4 J/K/mol | apparent molar heat capacity (298.15 K, m1 = 0.04995): 822.2 ± 1.9 J/K/mol | apparent molar heat capacity (298.15 K, m1 = 0.06015): 822.4 ± 1.6 J/K/mol | apparent molar heat capacity (298.15 K, m1 = 0.08002): 820.7 ± 1.2 J/K/mol | apparent molar heat capacity (298.15 K, m1 = 0.1224): 819.28 ± 0.83 J/K/mol | apparent molar heat capacity (298.15 K, m1 = 0.1472): 818.39 ± 0.77 J/K/mol | apparent molar heat capacity (298.15 K, m1 = 0.1935): 816.04 ± 0.56 J/K/mol | apparent molar heat capacity (298.15 K, m1 = 0.2925): 811.91 ± 0.4 J/K/mol | apparent molar heat capacity (303.15 K, m1 = 0.01001): 836.9 ± 9.2 J/K/mol | apparent molar heat capacity (303.15 K, m1 = 0.02001): 832.9 ± 4.4 J/K/mol | apparent molar heat capacity (303.15 K, m1 = 0.03002): 833.1 ± 3 J/K/mol | apparent molar heat capacity (303.15 K, m1 = 0.0401): 836.5 ± 2.3 J/K/mol | apparent molar heat capacity (303.15 K, m1 = 0.04995): 838.6 ± 1.9 J/K/mol | apparent molar heat capacity (303.15 K, m1 = 0.06015): 838.4 ± 1.5 J/K/mol | apparent molar heat capacity (303.15 K, m1 = 0.08002): 836.6 ± 1.1 J/K/mol | apparent molar heat capacity (303.15 K, m1 = 0.1224): 835.6 ± 0.8 J/K/mol | apparent molar heat capacity (303.15 K, m1 = 0.1472): 835.12 ± 0.75 J/K/mol | apparent molar heat capacity (303.15 K, m1 = 0.1935): 832.91 ± 0.55 J/K/mol | apparent molar heat capacity (303.15 K, m1 = 0.2925): 829.51 ± 0.39 J/K/mol | apparent molar heat capacity (308.15 K, m1 = 0.01001): 852.1 ± 9.3 J/K/mol | apparent molar heat capacity (308.15 K, m1 = 0.02001): 847.8 ± 4.3 J/K/mol | apparent molar heat capacity (308.15 K, m1 = 0.03002): 848.2 ± 2.9 J/K/mol | apparent molar heat capacity (308.15 K, m1 = 0.0401): 852.3 ± 2.3 J/K/mol | apparent molar heat capacity (308.15 K, m1 = 0.04995): 853.8 ± 1.9 J/K/mol | apparent molar heat capacity (308.15 K, m1 = 0.06015): 853.6 ± 1.5 J/K/mol | apparent molar heat capacity (308.15 K, m1 = 0.08002): 852.2 ± 1.1 J/K/mol | apparent molar heat capacity (308.15 K, m1 = 0.1224): 851.14 ± 0.77 J/K/mol | apparent molar heat capacity (308.15 K, m1 = 0.1472): 850.86 ± 0.75 J/K/mol | apparent molar heat capacity (308.15 K, m1 = 0.1935): 849 ± 0.61 J/K/mol | apparent molar heat capacity (308.15 K, m1 = 0.2925): 846.24 ± 0.43 J/K/mol | apparent molar heat capacity (313.15 K, m1 = 0.01001): 866.4 ± 9 J/K/mol | apparent molar heat capacity (313.15 K, m1 = 0.02001): 862 ± 4.3 J/K/mol | apparent molar heat capacity (313.15 K, m1 = 0.03002): 862.5 ± 2.9 J/K/mol | apparent molar heat capacity (313.15 K, m1 = 0.0401): 867.6 ± 2.3 J/K/mol | apparent molar heat capacity (313.15 K, m1 = 0.04995): 868.8 ± 1.8 J/K/mol | apparent molar heat capacity (313.15 K, m1 = 0.06015): 868.4 ± 1.5 J/K/mol | apparent molar heat capacity (313.15 K, m1 = 0.08002): 867.4 ± 1.2 J/K/mol | apparent molar heat capacity (313.15 K, m1 = 0.1224): 866.13 ± 0.76 J/K/mol | apparent molar heat capacity (313.15 K, m1 = 0.1472): 866.03 ± 0.71 J/K/mol | apparent molar heat capacity (313.15 K, m1 = 0.1935): 864.46 ± 0.66 J/K/mol | apparent molar heat capacity (313.15 K, m1 = 0.2925): 862.08 ± 0.46 J/K/mol | apparent molar heat capacity (318.15 K, m1 = 0.01001): 881.2 ± 9.1 J/K/mol | apparent molar heat capacity (318.15 K, m1 = 0.02001): 875.7 ± 4.2 J/K/mol | apparent molar heat capacity (318.15 K, m1 = 0.03002): 875.9 ± 2.8 J/K/mol | apparent molar heat capacity (318.15 K, m1 = 0.0401): 881.8 ± 2.3 J/K/mol | apparent molar heat capacity (318.15 K, m1 = 0.04995): 882.5 ± 1.8 J/K/mol | apparent molar heat capacity (318.15 K, m1 = 0.06015): 882.3 ± 1.6 J/K/mol | apparent molar heat capacity (318.15 K, m1 = 0.08002): 881.7 ± 1.2 J/K/mol | apparent molar heat capacity (318.15 K, m1 = 0.1224): 880.23 ± 0.79 J/K/mol | apparent molar heat capacity (318.15 K, m1 = 0.1472): 880.31 ± 0.7 J/K/mol | apparent molar heat capacity (318.15 K, m1 = 0.1935): 878.85 ± 0.65 J/K/mol | apparent molar heat capacity (318.15 K, m1 = 0.2925): 876.99 ± 0.45 J/K/mol | apparent molar heat capacity (323.15 K, m1 = 0.01001): 893 ± 8.8 J/K/mol | apparent molar heat capacity (323.15 K, m1 = 0.02001): 888.8 ± 4.2 J/K/mol | apparent molar heat capacity (323.15 K, m1 = 0.03002): 888.4 ± 2.8 J/K/mol | apparent molar heat capacity (323.15 K, m1 = 0.0401): 894.9 ± 2.2 J/K/mol | apparent molar heat capacity (323.15 K, m1 = 0.04995): 895.6 ± 1.8 J/K/mol | apparent molar heat capacity (323.15 K, m1 = 0.06015): 895.5 ± 1.5 J/K/mol | apparent molar heat capacity (323.15 K, m1 = 0.08002): 894.7 ± 1.2 J/K/mol | apparent molar heat capacity (323.15 K, m1 = 0.1224): 893.76 ± 0.74 J/K/mol | apparent molar heat capacity (323.15 K, m1 = 0.1472): 893.83 ± 0.69 J/K/mol | apparent molar heat capacity (323.15 K, m1 = 0.1935): 892.3 ± 0.64 J/K/mol | apparent molar heat capacity (323.15 K, m1 = 0.2925): 890.8 ± 0.44 J/K/mol | apparent molar heat capacity (328.15 K, m1 = 0.01001): 904.7 ± 8.3 J/K/mol | apparent molar heat capacity (328.15 K, m1 = 0.02001): 900.1 ± 4.1 J/K/mol | apparent molar heat capacity (328.15 K, m1 = 0.03002): 900.3 ± 2.8 J/K/mol | apparent molar heat capacity (328.15 K, m1 = 0.0401): 907.2 ± 2.1 J/K/mol | apparent molar heat capacity (328.15 K, m1 = 0.04995): 907.7 ± 1.7 J/K/mol | apparent molar heat capacity (328.15 K, m1 = 0.06015): 907.3 ± 1.5 J/K/mol | apparent molar heat capacity (328.15 K, m1 = 0.08002): 906.8 ± 1.1 J/K/mol | apparent molar heat capacity (328.15 K, m1 = 0.1224): 905.99 ± 0.73 J/K/mol | apparent molar heat capacity (328.15 K, m1 = 0.1472): 906.11 ± 0.7 J/K/mol | apparent molar heat capacity (328.15 K, m1 = 0.1935): 904.68 ± 0.61 J/K/mol | apparent molar heat capacity (328.15 K, m1 = 0.2925): 903.37 ± 0.42 J/K/mol | apparent molar heat capacity (333.15 K, m1 = 0.01001): 915.3 ± 8.1 J/K/mol | apparent molar heat capacity (333.15 K, m1 = 0.02001): 910.7 ± 4.1 J/K/mol | apparent molar heat capacity (333.15 K, m1 = 0.03002): 911 ± 2.8 J/K/mol | apparent molar heat capacity (333.15 K, m1 = 0.0401): 918.1 ± 2 J/K/mol | apparent molar heat capacity (333.15 K, m1 = 0.04995): 918.5 ± 1.7 J/K/mol | apparent molar heat capacity (333.15 K, m1 = 0.06015): 918 ± 1.5 J/K/mol | apparent molar heat capacity (333.15 K, m1 = 0.08002): 917.5 ± 1.1 J/K/mol | apparent molar heat capacity (333.15 K, m1 = 0.1224): 916.74 ± 0.72 J/K/mol | apparent molar heat capacity (333.15 K, m1 = 0.1472): 917.09 ± 0.69 J/K/mol | apparent molar heat capacity (333.15 K, m1 = 0.1935): 915.79 ± 0.6 J/K/mol | apparent molar heat capacity (333.15 K, m1 = 0.2925): 914.65 ± 0.41 J/K/mol

From the NIST ThermoML archive (doi:10.1016/j.jct.2004.07.027)
